The record followed here is patent US20250145625A1, “PYRAZOLOPYRIMIDINE DERIVATIVE AND ANTICANCER PHARMACEUTICAL COMPOSITION CONTAINING SAME AS ACTIVE INGREDIENT” (KOREA RESEARCH INSTITUTE OF CHEMICAL TECHNOLOGY, priority 2021, published 2025).

The test system of test [1] is HCT116 colon cancer cell line. The test can be described thus: Cytotoxicity in TTK-expressed HCT116 cells. It counts as cell-based. The conditions noted are these: Homo sapiens, HCT-116, 120 h, 5 days. As to the method:
To determine the cytotoxicity of a compound represented by Chemical Formula 1 according to the present invention to HCT116 cells, the following test was conducted.
HCT116 colon cancer cell line purchased from ATCC was inoculated into each well of a 96-well plate at a volume of 90 μL containing 2,000 cells. Thereafter, an example compound of the present invention was added to respective wells at concentrations of […], 3 μM, 1 μM, 0.3 μM, 0.1 μM, and 0 μM, and the cells were cultured in a cell incubator at 37° C. for 5 days. After 5 days, the number of cells was measured by CCK8 test method, and the cytotoxicity was determined by calculating the IC50 value for cytotoxicity of each compound.

In test [2] the target is recombinant human TTK protein (Homo sapiens (Human), UniProt P33981). The test can be described thus: Evaluation of TTK activity inhibitory ability (scintillation counting).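 Further: reaction stopped with 0.5% phosphoric acid, spotted on P30 filter, TTK activity counted by scintillation, uninhibited no-compound wells taken as 100% control.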 The conditions noted are these: TTK inhibitory activity; read-out: IC50. It is filed as biochemical.
Method: To determine the ability of a compound represented by Chemical Formula 1 according to the present invention to inhibit TTK activity, the following experiment was conducted.
After that, the reaction was terminated by adding phosphoric acid to a concentration of 0.5%, and 10 of the reaction solution was dropped onto a P30 filter. […] The activity of TTK was measured through scintillation counting. The activity value from the group with no compound was set as 100% of control, and the degree of TTK inhibition by the compound was calculated.
Test [3] deals with MDA-MB-231 triple negative breast cancer cell line. The test can be described thus: Cytotoxicity in TTK-expressed MDA-MB-231 cells. It counts as cell-based. The conditions noted are these: Homo sapiens, MDA-MB-231, 120 h, 5 days. How it is done:
To determine the cytotoxicity of a compound represented by Chemical Formula 1 according to the present invention to MDA-MB-231 cells, the following test was conducted.
MDA-MB-231 triple negative breast cancer cell line purchased from ATCC was inoculated into each well of a 96-well plate at a volume of 90 μL containing 2,000 cells. Thereafter, an example compound of the present invention was added to respective wells at concentrations of 10 μM, 3 μM, 1 μM, 0.3 μM, 0.1 μM, and 0 μM, and the cells were cultured in a cell incubator at 37° C. for 5 days. Five days later, 10 μL of Cyto X solution (manufacturer: LPS Solution) was added to each of the wells, and the absorbance was measured at 450 nm using an Epoch microplate spectrophotometer (manufacturer: BioTek Instruments Inc.) according to the product's user guide. For cytotoxicity, the IC50 value for cytotoxicity of each compound was calculated by quantifying the number of cells using the measured value.

Sequence of recombinant human TTK protein (P33981 whole entry): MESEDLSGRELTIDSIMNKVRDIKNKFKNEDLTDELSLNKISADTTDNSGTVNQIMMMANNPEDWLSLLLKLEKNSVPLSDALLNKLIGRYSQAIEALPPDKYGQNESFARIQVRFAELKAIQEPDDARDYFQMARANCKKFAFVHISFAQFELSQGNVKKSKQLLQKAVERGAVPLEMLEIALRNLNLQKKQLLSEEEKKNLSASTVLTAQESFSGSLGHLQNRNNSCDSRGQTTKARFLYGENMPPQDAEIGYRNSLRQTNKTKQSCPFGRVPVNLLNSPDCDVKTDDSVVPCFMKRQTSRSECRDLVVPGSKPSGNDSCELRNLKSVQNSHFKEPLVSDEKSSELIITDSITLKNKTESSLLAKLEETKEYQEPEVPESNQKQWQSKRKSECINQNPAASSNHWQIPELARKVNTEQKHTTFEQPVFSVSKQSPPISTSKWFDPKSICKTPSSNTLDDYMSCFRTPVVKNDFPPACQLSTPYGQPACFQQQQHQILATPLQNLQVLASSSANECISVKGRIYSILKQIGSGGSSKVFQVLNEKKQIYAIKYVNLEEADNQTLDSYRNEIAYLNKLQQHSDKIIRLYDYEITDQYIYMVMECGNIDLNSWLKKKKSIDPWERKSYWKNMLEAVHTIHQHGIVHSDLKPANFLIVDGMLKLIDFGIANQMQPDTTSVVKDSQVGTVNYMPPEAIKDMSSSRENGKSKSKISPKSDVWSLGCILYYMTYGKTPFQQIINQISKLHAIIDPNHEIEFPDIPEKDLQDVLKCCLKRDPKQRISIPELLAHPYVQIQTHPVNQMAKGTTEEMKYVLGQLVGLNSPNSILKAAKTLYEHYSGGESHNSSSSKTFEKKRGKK

For `COc1cc(N2CCOCC2)ccc1Nc1nc(NC2CCCCC2)c2c(-c3cnco3)n[nH]c2n1` [Compound 18-1, N^4-cyclohexyl-N^6-(2-methoxy-4-morpholinophenyl)-3-(oxazol-5-yl)-1H-pyrazolo[3,4-d]pyrimidine-4,6-diamine], the values for the IC50 in test [1], in test [2] and in test [3] were less than 150 nM, less than 0.03 µM and less than 150 nM, respectively.

`COc1cc(N2CCOCC2)ccc1Nc1nc(NC2CCOCC2)c2c(-c3cnn(C)c3)n[nH]c2n1` [Compound 8-23, N^6-(2-methoxy-4-morpholinophenyl)-3-(1-methyl-1H-pyrazol-4-yl)-N^4-(tetrahydro-2H-pyran-4-yl)-1H-pyrazolo[3,4-d]pyrimidine-4,6-diamine]: the IC50 was 150 to 500 nM in test [1], less than 0.03 µM in test [2] and 500 to 1000 nM in test [3].

In the case of `COc1cc(N2CCOCC2)ccc1Nc1nc(NC2CCCCC2)c2c(-c3cccc(NS(C)(=O)=O)c3)n[nH]c2n1` [Compound 8-6, N-(3-(4-(cyclohexylamino)-6-((2-methoxy-4-morpholinophenyl)amino)-1H-pyrazolo[3,4-d]pyrimidin-3-yl)phenyl)methanesulfonamide], the IC50 in test [1] is greater than 1000 nM; in test [2], 0.03 to 0.1 µM; in test [3], greater than 1000 nM.

As to `COc1cc(N2CCOCC2)ccc1Nc1nc(NC2CCCCC2)c2c(-c3nnco3)n[nH]c2n1` [Compound 14-2, N^4-cyclohexyl-N^6-(2-methoxy-4-morpholinophenyl)-3-(1,3,4-oxadiazol-2-yl)-1H-pyrazolo[3,4-d]pyrimidine-4,6-diamine], the half-inhibitory concentration (IC50) in test [1] is 150 to 500 nM; in test [2], 0.03 to 0.1 µM; in test [3], 150 to 500 nM.

On to `COc1cc(-c2nncn2C)ccc1Nc1nc(NC2CCCCC2)c2c(-c3cnn(C)c3)n[nH]c2n1` [Compound 11-2, N^4-cyclohexyl-N^6-(2-methoxy-4-(4-methyl-4H-1,2,4-triazol-3-yl)phenyl)-3-(1-methyl-1H-pyrazol-4-yl)-1H-pyrazolo[3,4-d]pyrimidine-4,6-diamine], for which the results for the IC50 in test [1], in test [2] and in test [3] were less than 150 nM, less than 0.03 µM and less than 150 nM, respectively.

Consider `COc1cc(N2CCOCC2)ccc1Nc1nc(NC2CCOCC2)c2c(-c3cnco3)n[nH]c2n1` [Compound 33-1, N^6-(2-methoxy-4-morpholinophenyl)-3-(oxazol-5-yl)-N^4-(tetrahydro-2H-pyran-4-yl)-1H-pyrazolo[3,4-d]pyrimidine-4,6-diamine], for which the IC50 is less than 150 nM in test [1], less than 0.03 µM in test [2] and less than 150 nM in test [3].

In the case of `CNC(=O)c1ccc(Nc2nc(NC3CCCCC3)c3c(-c4cnn(C)c4)n[nH]c3n2)c(OC)c1` [Compound 11-3, 4-((4-(cyclohexylamino)-3-(1-methyl-1H-pyrazol-4-yl)-1H-pyrazolo[3,4-d]pyrimidin-6-yl)amino)-3-methoxy-N-methylbenzamide], the IC50 in test [1] was 150 to 500 nM; in test [2], less than 0.03 µM; in test [3], less than 150 nM.

Consider `COc1cc(N2CCOCC2)ccc1Nc1nc(NC2CCOCC2)c2c(-c3cccnc3)n[nH]c2n1` [Compound 8-27, N^6-(2-methoxy-4-morpholinophenyl)-3-(pyridin-3-yl)-N^4-(tetrahydro-2H-pyran-4-yl)-1H-pyrazolo[3,4-d]pyrimidine-4,6-diamine], for which the results for the IC50 in test [1], in test [2] and in test [3] were 500 to 1000 nM, less than 0.03 µM and 500 to 1000 nM, respectively.

Consider `COc1cc(N2CCOCC2)ccc1Nc1nc(NC2CCCCC2)c2c(-c3ccco3)n[nH]c2n1` [Compound 8-14, N^4-cyclohexyl-3-(furan-2-yl)-N^6-(2-methoxy-4-morpholinophenyl)-1H-pyrazolo[3,4-d]pyrimidine-4,6-diamine], for which the figures for the IC50 in test [1], in test [2] and in test [3] were 150 to 500 nM, 0.03 to 0.1 µM and 150 to 500 nM, respectively.

For `COc1cc(N2CCOCC2)ccc1Nc1nc(NCC2CCCO2)c2c(-c3cnoc3)n[nH]c2n1` (stereo not drawn) [Compound 8-35, 3-(Isoxazol-4-yl)-N^6-(2-methoxy-4-morpholinophenyl)-N^4-((tetrahydrofuran-2-yl)methyl)-1H-pyrazolo[3,4-d]pyrimidine-4,6-diamine], the 50% inhibitory concentration (IC50) is greater than 1000 nM in test [1], less than 0.03 µM in test [2] and greater than 1000 nM in test [3].

Turning to `COc1cc(N2CCOCC2)ccc1Nc1nc(NC2CCCCC2)c2c(-c3ccn(C)n3)n[nH]c2n1` [Compound 8-13, N^4-cyclohexyl-N^6-(2-methoxy-4-morpholinophenyl)-3-(1-methyl-1H-pyrazol-3-yl)-1H-pyrazolo[3,4-d]pyrimidine-4,6-diamine], the values for the half-inhibitory concentration (IC50) in test [1], in test [2] and in test [3] were 500 to 1000 nM, less than 0.03 µM and 500 to 1000 nM, respectively.

On to `COc1cc(-c2nncn2C)ccc1Nc1nc(NC2CCOCC2)c2c(-c3cnco3)n[nH]c2n1` [Compound 33-3, N^6-(2-methoxy-4-(4-methyl-4H-1,2,4-triazol-3-yl)phenyl)-3-(oxazol-5-yl)-N^4-(tetrahydro-2H-pyran-4-yl)-1H-pyrazolo[3,4-d]pyrimidine-4,6-diamine], for which the IC50 in test [1] is greater than 1000 nM; in test [2], less than 0.03 µM; in test [3], 500 to 1000 nM.

For `COc1cc(N2CCOCC2)ccc1Nc1nc(NC2CCOCC2)c2c(-c3cn(C)nn3)n[nH]c2n1` [Compound 21-3, N^6-(2-methoxy-4-morpholinophenyl)-3-(1-methyl-1H-1,2,3-triazol-4-yl)-N^4-(tetrahydro-2H-pyran-4-yl)-1H-pyrazolo[3,4-d]pyrimidine-4,6-diamine], the values for the IC50 in test [1], in test [2] and in test [3] were less than 150 nM, 0.03 to 0.1 µM and 150 to 500 nM, respectively.

With `COc1cc(N2CCOCC2)ccc1Nc1nc(NC2CCOCC2)c2c(-c3ncco3)n[nH]c2n1` [Compound 8-22, N^6-(2-methoxy-4-morpholinophenyl)-3-(oxazol-2-yl)-N^4-(tetrahydro-2H-pyran-4-yl)-1H-pyrazolo[3,4-d]pyrimidine-4,6-diamine], the concentration for half-maximal inhibition (IC50) in test [1] is less than 150 nM; in test [2] it was less than 0.03 µM; in test [3], 500 to 1000 nM.

Consider `COc1cc(N2CCOCC2)ccc1Nc1nc(NC2CCCCC2)c2c(-c3nncn3C)n[nH]c2n1` [Compound 14-1, N^4-cyclohexyl-N^6-(2-methoxy-4-morpholinophenyl)-3-(4-methyl-4H-1,2,4-triazol-3-yl)-1H-pyrazolo[3,4-d]pyrimidine-4,6-diamine], for which the IC50 in test [1] is 150 to 500 nM; in test [2], 0.03 to 0.1 µM; in test [3] it was less than 150 nM.

In the case of `COc1cc(N2CCOCC2)ccc1Nc1nc(NC2CCOCC2)c2c(-c3cnoc3)n[nH]c2n1` [Compound 8-21, 3-(Isoxazol-4-yl)-N^6-(2-methoxy-4-morpholinophenyl)-N^4-(tetrahydro-2H-pyran-4-yl)-1H-pyrazolo[3,4-d]pyrimidine-4,6-diamine], the 50% inhibitory concentration (IC50) in test [1] lay in the range of 500 to 1000 nM; in test [2], 0.03 to 0.1 µM; in test [3] it was 500 to 1000 nM.

With `COc1cc(N2CCOCC2)ccc1Nc1nc(NC2CCCCC2)c2c(-c3ccc4nc(C)oc4c3)n[nH]c2n1` [Compound 8-18, N^4-cyclohexyl-N^6-(2-methoxy-4-morpholinophenyl)-3-(2-methylbenzooxazol-6-yl)-1H-pyrazolo[3,4-d]pyrimidine-4,6-diamine], the IC50 in test [1] was less than 150 nM; in test [2], 0.03 to 0.1 µM; in test [3], 150 to 500 nM.
